According to patent EP0362382A1, “METHOD OF STERILIZING PLANT POLLEN” (VSESOJUZNY NAUCHNO-ISSLEDOVATELSKY INST. SELSKOKHOZYAISTV. …, priority 1988, dated 1989):

Assays:
Type in all cases: in vivo
[1] = tested on: diploidem Roggen; experiment: Field test of gametocidal activity (sterilisation of anthers), diploid rye; conditions: Sorte Gibrid 1861/79; V. und VI. Periode der Organogenese; 1%ige wäßrige Emulsion; 8 kg/ha
Text: (§1) Die gametozide Aktivitat der erfindungsgemäßen Sterilisationsmittel war im Feldversuch in verschiedenen bodenklimatischen Zonen mit Teilstücken von 10 m^2 Größe in drei- bis viermaliger Wiederholung festgestellt. Jedes Sterilisationsmittel wurde mindenstens 5 Jahre lang geprüft.
(§2) Die Entwicklung der Perioden der Organogenese wird zytologisch überwacht. Die Behandlung von Pflanzen mit dem Sterilisationsmittel erfolgt am Anfang der fünften Periode der Organogenese nach Kupermann.
(§3) Mit dem Ährenschieben verwirklicht man die Isolierung von Hauptähren und anderen Stockwerken in Pergamentbeuteln. Bei Weizen und Tritikale werden Einzelisolatoren benutzt. Bei Roggen schließt man je Ähre 5 bis 7 verschiedene nebeneinander befindliche Pflanzen unter einen gemeinsamen Isolator ein. Bei Hierse wird jede Rispe getrennt isoliert. Der Sterilitätsprozentsatz (X) für Weizen, Roggen, Tritikale und Hirse wird nach der Formel [formula] ermittelt.
(§4) Die Kornzahl in nicht isolierten Ähren von Kontrollpflanzen wird bedingt für 100 % Ansetzen bei freier Bestäubung angenommen.
(§5) Um zuverlässige Angaben zu erhalten, verwendet man 20 bis 25 Isolatoren jeder Wiederholung für Weizen und Tritikale, 10 .bis 15 Isolatoren jeder Wiederholung für Roggen und Hirse.
Pflanzen von diploidem Roggen Sorte Wosohod 2 werden in der V. Periode der Organogenese (nach Kupermann) mit 1%iger wäßriger Emulsion von Bis(di-n-butyläther) der δ, δ' -Thiodivaleriansäure, 4-Krboxybutyldezylsulfid, Natriumsalz der δ, δ' -Thiodivaleriansäure, Bis(2-äthylhexyläther) der δ, δ' -Thiodivaleriansäure, δ, δ' -Sulfonyldivaleriansäure, Natriumsalz der δ, δ'-Sulfonyldivaleriansäure, Kaliumsalz der δ, δ' -Sulfonyldivaleriansäure behandelt. Die Emulsion enthält 0,1 Masse% […] mit 12 bis 14 Kohlenstoffatomen und 0,01 Masse% Tetrahydrofuran. Der Verbrauch an Präparat beträgt 6 kg/ha. Als Kontrolle dienen Pflanzen, behandelt mit einem Verdünner ohne Sterilisationsmittel.
Pflanzen von diploidem Roggen Sorte Gibrid 1861/79 werden in der V. und VI. Periode der Organogenese (nach Kupermann) mit 1%iger wäßriger Emulsion von Bis(di-n-butyläther) der δ, δ' -Thiodivaleriansäure, δ, δ' -Thiodivaleriansäure, Natriumsalz der δ δ' -Thiodivaleriansäure, 4-Karboxybutyldezylsulfid, δ , δ' -Sulfonyldivaleriansäure, Kaliumsalz der δ, δ' -Sulfonyldivaleriansäuleriansäure, Kaliumalz der δ' -Sulfonyldivaleriansäure, Bis(2-äthylhexyläther) der δ, δ' -Thiodivaleriansäure behandelt. Die Emulsion enthält 0,1 Masse% Kalziumalkylbenzolsulfonat mit 12 bis 14 Kohlenstoffatomen und 0,01 Masse% Dimethylformamid. Der Verbrauch an Präparat beträgt 8 kg/ha. Als Kontrolle dienen Pflanzen, behandelt mit einem Verdünner ohne Sterilisationsmittel. Die Prüfergebnisse sind in der Tabelle 10 angegeben.

[2] = tested on: tetraploidem Roggen; experiment: Field test of gametocidal activity (sterilisation of anthers), tetraploid rye; conditions: Sorte Belta; V. Periode der Organogenese; 1%ige wäßrige Emulsion; 6 kg/ha
Text: as §1, §2, §3, §4, §5
Pflanzen von tetraploidem Roggen Sorte Belta werden in der V. Periode der Organogenese (nach Kupermann) mit 1%iger wäßriger Emulsion von d, δ' -Thiodivaleriansäure, Natriumsalz der δ, δ' -Thiodivaleriansäure, δ, δ' -Sulfonylvaleriansäure, Natriumsalz der δ, δ' -Sulfonyldivaleriansäure, Kaliumsalz der d, δ' -Sulfonyldivaleriansäure, Bis(di-n-butyläther) der δ, δ' -Thiodivaleriansäure, Bis(2-Äthylhexyläther) der δ, δ'-Thiodivaleriansäure, 4-Karboxybutyldezylsulfid behandelt. Die Emulsion enthält 0,1 Masse% Kalziumalkylbenzolaulfonat und 0,01 Masse% Dimethylsulfoxid. Der Verbrauch an Präparat beträgt 6 kg/ha. Als Kontrolle dienen Pflanzen, behandelt mit einem Verdünner ohne Sterilisationsmittel. Die Prüfergebnisse sind in der Tabelle 11 angegeben. […] Periode der Organogese erhalten.

[3] = tested on: Hirse; experiment: Field test of gametocidal activity (sterilisation of anthers), millet; conditions: V. Periode der Organogenese, 1%ige wäßrige Emulsion
Text: as §1, §2, §3, §4, §5
Pflanzen der Hirse Sorte Mironowskoe 94 werden in der V. Periode der Organogenese (nach Kupermann) mit 1%iger wäßriger Emulsion von 4-Karboxybutyldezylsulfid, δ, δ' -Sulfonyldivaleriansäure, Bis(2-äthylhexyläther) der δ, δ' -Thiodivaleriansäure behandelt. Die Emulsion enthält 0,1 Masse% Kalziumalkylbenzolsulfonat mit 12 bis 14 Kohlenstoffatomen und 0,01 Masse% Dodezylsulfat. Der Verbrauch an Präparat beträgt 10 kg/ha. Als Kontrolle dienen Pflanzen, behandelt mit einem Verdünner ohne Sterilieationsmittel. Die Prüfergebnisse sind in der Tabelle 14 angegeben. […] Periode der Organogenese erhalten.
Pflanzen der Hirse Sorte K9009, Poltawskaja oblast (Poltawaer Gebiet) werden in der V.Periode der Organogenese (nach Kupermann) mit 1%iger wäßriger Emulsion von δ, δ' Thiodivaleriansäure, Natriumsälz der δ, δ'- -Thiodivaleriansäure, δ, δ' -Sulfonyldivaleriansäure, Bis([…]) der d, δ' -Thiodivaleriansäure, 4-Karboxybutyldezylsulfid behandelt. Die Emulsion enthält 0,1 Masse% Kalziumalkylbenzolsulfonat mit 12 bis 14 Kohlenstoffatomen und 0,01 Masse% Tetrahydrofuran, Der Verbrauch an Präparat beträgt 6 kg/ha. Als Kontrolle dienen . Pflanzen, behandelt mit einem Verdünner ohne Sterilisationsmittel. Die Prüfergebnisse sind in der Tabelle 15 angegeben. […] Periode der Organogenese erhalten.
Pflanzen der Hirse Sorte K-9693 Kormowoe 1 werden in der V. Periode der Organogenese (nach Kupermann) mit l%iger wäßriger Emulsion von Bis(di-n-butyläther) der δ, δ' -Thiodivaleriansäure, Natriumsalz der δ, δ' -Sulfonyldivaleriansäure behandelt. Der Verbrauch an Präparat beträgt 6 kg/ha. Als Kontrolle dienen Pflanzen, behandelt mit einem Verdünner ohne Sterilisationsmittel. Die Prüfergebnisse sind in der Tabelle 16 angegeben. […] Periode der Organogenese erhalten.

[4] = Sorte K9009, Poltawskaja oblast, 6 kg/ha
[5] = Sorte K-9693 Kormowoe 1, 6 kg/ha

## O=C(O)CCCCS(=O)(=O)CCCCC(=O)O [Beispiel 48, δ , δ' -Sulfonyldivaleriansäure]
[1]
  Anzahl von Körnern der Ähre bei freier Bestäubung: 54,7
  Anzahl von Körnern der Ähre im Isolator: 0,0
  Prozentsatz der Sterilität: 100,0%
  Prozentsatz des Ansetzens von Körnern bei freier Bestäubung: 87,1%

## O=C(O)CCCCS(=O)(=O)CCCCC(=O)O [Beispiel 49, Kaliumsalz der δ, δ' -Sulfonyldivaleriansäuleriansäure]
[1]
  Anzahl von Körnern der Ähre bei freier Bestäubung: 57,0
  Anzahl von Körnern der Ähre im Isolator: 0,0
  Prozentsatz der Sterilität: 100,0%
  Prozentsatz des Ansetzens von Körnern bei freier Bestäubung: 90,8%

## CCCCC(CC)COC(=O)CCCCSCCCCC(=O)OCC(CC)CCCC (stereo not drawn) [Beispiel 50, Bis(2-äthylhexyläther) der δ, δ' -Thiodivaleriansäure]
[1]
  Anzahl von Körnern der Ähre bei freier Bestäubung: 53,2
  Anzahl von Körnern der Ähre im Isolator: 0,0
  Prozentsatz der Sterilität: 100,0%
  Prozentsatz des Ansetzens von Körnern bei freier Bestäubung: 84,7%

## O=C(O)CCCCSCCCCC(=O)O [Beispiel 51, d, δ' -Thiodivaleriansäure]
[2]
  Anzahl von Körnern der Ähre bei freier Bestäubung: 32,9
  Anzahl von Körnern der Ähre im Isolator: 0,3
  Prozentsatz der Sterilität: 99,3%
  Prozentsatz des Ansetzens von Körnern bei freier Bestäubung: 74,4%

## O=C(O)CCCCSCCCCC(=O)O [Beispiel 52, Natriumsalz der δ, δ' -Thiodivaleriansäure]
[2]
  Anzahl von Körnern der Ähre bei freier Bestäubung: 40,6
  Anzahl von Körnern der Ähre im Isolator: 0,1
  Prozentsatz der Sterilität: 99,8%
  Prozentsatz des Ansetzens von Körnern bei freier Bestäubung: 91,8%

## O=C(O)CCCCS(=O)(=O)CCCCC(=O)O [Beispiel 53, δ, δ' -Sulfonylvaleriansäure]
[2]
  Anzahl von Körnern der Ähre bei freier Bestäubung: 39,0
  Anzahl von Körnern der Ähre im Isolator: 0,0
  Prozentsatz der Sterilität: 100,0%
  Prozentsatz des Ansetzens von Körnern bei freier Bestäubung: 88,2%

## O=C(O)CCCCS(=O)(=O)CCCCC(=O)O [Beispiel 54, Natriumsalz der δ, δ' -Sulfonyldivaleriansäure]
[2]
  Anzahl von Körnern der Ähre bei freier Bestäubung: 34,6
  Anzahl von Körnern der Ähre im Isolator: 0,0
  Prozentsatz der Sterilität: 100,0%
  Prozentsatz des Ansetzens von Körnern bei freier Bestäubung: 78,2%

## O=C(O)CCCCS(=O)(=O)CCCCC(=O)O [Beispiel 55, Kaliumsalz der d, δ' -Sulfonyldivaleriansäure]
[2]
  Anzahl von Körnern der Ähre bei freier Bestäubung: 34,0
  Anzahl von Körnern der Ähre im Isolator: 0,0
  Prozentsatz der Sterilität: 100,0%
  Prozentsatz des Ansetzens von Körnern bei freier Bestäubung: 76,9%

## CCCCOC(=O)CCCCSCCCCC(=O)OCCCC [Beispiel 56, Bis(di-n-butyläther) der δ, δ' -Thiodivaleriansäure]
[2]
  Anzahl von Körnern der Ähre bei freier Bestäubung: 38,2
  Anzahl von Körnern der Ähre im Isolator: 0,0
  Prozentsatz der Sterilität: 100,0%
  Prozentsatz des Ansetzens von Körnern bei freier Bestäubung: 86,7%

## CCCCC(CC)COC(=O)CCCCSCCCCC(=O)OCC(CC)CCCC (stereo not drawn) [Beispiel 57, Bis(2-Äthylhexyläther) der δ, δ'-Thiodivaleriansäure]
[2]
  Anzahl von Körnern der Ähre bei freier Bestäubung: 42,7
  Anzahl von Körnern der Ähre im Isolator: 0,0
  Prozentsatz der Sterilität: 100,0%
  Prozentsatz des Ansetzens von Körnern bei freier Bestäubung: 96,6%

## CCCCCCCCCCSCCCCC(=O)O [Beispiel 58, 4-Karboxybutyldezylsulfid]
[2]
  Anzahl von Körnern der Ähre bei freier Bestäubung: 40,3
  Anzahl von Körnern der Ähre im Isolator: 0,0
  Prozentsatz der Sterilität: 100,0%
  Prozentsatz des Ansetzens von Körnern bei freier Bestäubung: 91,2%

## CCCCCCCCCCSCCCCC(=O)O [Beispiel 65, 4-Karboxybutyldezylsulfid]
[3]; Sorte Mironowskoe 94, 10 kg/ha
  Anzahl von Körnern der Rispe bei freier Bestäubung: 323,7
  Anzahl von Körnern der Rispe im Isolator: 0,0
  Prozentsatz der Sterilität: 100,0%
  Prozentsatz des Ansetzens von Körnern bei freier Bestäubung: 88,3%

## O=C(O)CCCCS(=O)(=O)CCCCC(=O)O [Beispiel 66, δ, δ' -Sulfonyldivaleriansäure]
[3]; Sorte Mironowskoe 94, 10 kg/ha
  Anzahl von Körnern der Rispe bei freier Bestäubung: 336,8
  Anzahl von Körnern der Rispe im Isolator: 0,0
  Prozentsatz der Sterilität: 100,0%
  Prozentsatz des Ansetzens von Körnern bei freier Bestäubung: 91,9%

## CCCCC(CC)COC(=O)CCCCSCCCCC(=O)OCC(CC)CCCC (stereo not drawn) [Beispiel 67, Bis(2-äthylhexyläther) der δ, δ' -Thiodivaleriansäure]
[3]; Sorte Mironowskoe 94, 10 kg/ha
  Anzahl von Körnern der Rispe bei freier Bestäubung: 312,8
  Anzahl von Körnern der Rispe im Isolator: 0,0
  Prozentsatz der Sterilität: 100,0%
  Prozentsatz des Ansetzens von Körnern bei freier Bestäubung: 85,3%

## O=C(O)CCCCSCCCCC(=O)O [Beispiel 68, δ, δ' Thiodivaleriansäure]
[3]; [4]
  Anzahl von Körnern der Rispe bei freier Bestäubung: 101,4
  Anzahl von Körnern der Rispe im Isolator: 0,0
  Prozentsatz der Sterilität: 100,0%
  Prozentsatz des Ansetzens von Körnern bei freier Bestäubung: 78,1%

## O=C([O-])CCCCSCCCCC(=O)[O-].[Na+].[Na+] [Beispiel 69, Natriumsälz der δ, δ'- -Thiodivaleriansäure]
[3]; [4]
  Anzahl von Körnern der Rispe bei freier Bestäubung: 105,1
  Anzahl von Körnern der Rispe im Isolator: 0,0
  Prozentsatz der Sterilität: 100,0%
  Prozentsatz des Ansetzens von Körnern bei freier Bestäubung: 81,2%

## O=C(O)CCCCS(=O)(=O)CCCCC(=O)O [Beispiel 70, δ, δ' -Sulfonyldivaleriansäure]
[3]; [4]
  Anzahl von Körnern der Rispe bei freier Bestäubung: 77,1
  Anzahl von Körnern der Rispe im Isolator: 0,0
  Prozentsatz der Sterilität: 100,0%
  Prozentsatz des Ansetzens von Körnern bei freier Bestäubung: 60,0%

## CCOCCOC(=O)CCCCSCCCCC(=O)OCCOCC [Beispiel 71, Bis(2-äthylglykoläther) der d, δ' -Thiodivaleriansäure]
[3]; [4]
  Anzahl von Körnern der Rispe bei freier Bestäubung: 112,0
  Anzahl von Körnern der Rispe im Isolator: 0,0
  Prozentsatz der Sterilität: 100,0%
  Prozentsatz des Ansetzens von Körnern bei freier Bestäubung: 86,6%

## CCCCCCCCCCSCCCCC(=O)O [Beispiel 72, 4-Karboxybutyldezylsulfid]
[3]; [4]
  Anzahl von Körnern der Rispe bei freier Bestäubung: 100,7
  Anzahl von Körnern der Rispe im Isolator: 0,0
  Prozentsatz der Sterilität: 100,0%
  Prozentsatz des Ansetzens von Körnern bei freier Bestäubung: 77,8%

## O=C([O-])CCCCS(=O)(=O)CCCCC(=O)[O-].[Na+].[Na+] [Beispiel 74, Natriumsalz der δ, δ' -Sulfonyldivaleriansäure]
[3]; [5]
  Anzahl von Körnern der Rispe bei freier Bestäubung: 103,5
  Anzahl von Körnern der Rispe im Isolator: 0,0
  Prozentsatz der Sterilität: 100,0%
  Prozentsatz des Ansetzens von Körnern bei freier Bestäubung: 70,5%

## Bis(di-n-butyläther) der δ, δ' -Thiodivaleriansäure [Beispiel 73]
[3]; [5]
  Anzahl von Körnern der Rispe bei freier Bestäubung: 122,1
  Anzahl von Körnern der Rispe im Isolator: 0,0
  Prozentsatz der Sterilität: 100,0%
  Prozentsatz des Ansetzens von Körnern bei freier Bestäubung: 83,2%
